Tested on: rats inoculated intracisternally with Haemophilus influenzae type b lipooligosaccharide
Test: Rat meningitis model (H. influenzae LOS)
Type: in vivo
Conditions: for Leukocytosis: Experiment #3, 600 nmol i.v., CSF 4 hours after LOS
Method: The experiments were performed according to established protocols (Wispelway et al., 1988, J. Clin. Invest., 82: 1339-1346). Purified Haemophilus influenzae type b strain DL42 lipooligosaccharide (LOS) was prepared for inoculation by sonication for 30 minutes, dilution to the desired concentration (20 ng/50 μl) in normal saline or PBS, and sonication for an additional 15 to 30 minutes just prior to use.
Briefly, anesthetized female Wistar rats were placed under a micromanipulator and inoculated intracisternally with a 25 gauge needle. After removal of 50 μl of CSF (without visible blood contamination), rats were inoculated intracisternally with 50 μl (20 ng) of LOS using a 1 ml syringe with a 25 gauge needle. Ten to fifteen minutes after inoculation with LOS, the rats were treated by intravenous administration of the test substance: a solution of an FHA peptide in PBS, a solution of a control peptide in PBS, or an equal volume of PBS alone.
Three hours after LOS inoculation, 5 μCi of ^125 I-radiolabelled albumin in 50 μl normal saline was administered intravenously. One hour later, CSF was collected via intracisternal puncture and blood samples were collected via intracardiac puncture. CSF leukocytosis was determined by manually counting white blood cells using a hemacytometer, and blood-brain barrier permeability was determined as the percent of radioactivity in whole blood that was present in the CSF. Blood samples were obtained immediately prior to inoculation, immediately prior to treatment, and at 4 hours post-inoculation for determination of peripheral white blood cell concentrations.

Ac-ETKEVDG-NH2 [Acetyl/Amide-FHA II]
BBB permeability (Experiment #3, 600 nmol): 6.00 ± 5.14%
Leukocytosis: approximately 10,000 cells/ml
Leukocytosis (listed as ac/am FHA II): 10,500 ± 8523 cells/ml
neutropenia (peripheral white blood cells): No neutropenia was observed
Inhibition of blood-brain barrier permeability (rat, in vivo): not observed

From patent US5932217A, “Peptides which inhibit adhesion between leukocytes and endothelial cells” (priority 1994, dated 1999)
